# From article PMC2965131, “Histopathology and biochemistry analysis of the interaction between sunitinib and paracetamol in mice” (BMC Pharmacology, 2010)
# Values joined by “and” are separate entries in the source; they are usually repeats but may differ in a detail not shown here. Identical values can stand only once.
# Experiments:
# Male ICR mice [1] = experiment: Serum BUN and creatinine (renal function biomarkers); assay type: in vivo; details: for BUN serum concentration / Creatinine serum concentration: mean ± SE, n = 6
# Description: (§1) Animals were fasted overnight prior to dose administration and randomly assigned to each of the four experimental groups. Mice in group A (n = 6) were administered saline; mice in group B mice (n = 6) were administered paracetamol only, 500 mg/kg IP. Group C was further subdivided into five different dose-groups of sunitinib only treatment: 25, 50, 80, 100 and 140 mg/kg administered PO (n = 6 for each dose group). Finally, mice in group D were co-administered paracetamol (500 mg/kg IP) and sunitinib at different doses: 25, 50, 80, 100 and 140 mg/kg PO (n = 6 each dose group). A feeding needle was used to ensure the full administration of the dose. Paracetamol was administered 15 minutes before sunitinib and animals were sacrificed 4 hours post sunitinib administration by cervical dislocation. Blood was obtained via cardiac puncture, allowed to clot, centrifuged (1500 rpm, 10 min, room temperature) and stored at -20°C until analysis. The liver and kidneys were excised from the mice and processed for histology assessment.
# (§2) Biochemistry analysis of serum ALT and AST was performed using standard assay kits (BiooScientific Corp., USA). The concentration in duplicate samples was measured at 340 nm using a microplate reader (Tecan Infinite F200). Similarly, blood urea nitrogen (BUN) and creatinine concentration were measured using specific assay kits (BioAssay Systems, USA) and measured at 490 nm (duplicate samples) in a Dynex OpsysMR microplate reader.
# (§3) The effect of the drug combination on the biomarker levels compared to sunitinib alone treatment was assessed with the aid of SPSS 16.0 with the significance level set at p < 0.05. Independent-samples t-test (for samples normally distributed based on Shapiro-Wilk test) for pair-wise comparison was performed at each dose of the sunitinib alone and sunitinib and paracetamol combination groups. Samples that were not normally distributed were tested using the Mann Whitney test.
# heart tissue = experiment: Histopathology assessment of heart (H&E, semi-quantitative grading); assay type: in vivo; details: mice
# Description: as §1
# (§4) Processing of tissue samples for histology assessment followed established procedures. In brief, the tissue samples were rinsed with 0.9% saline solution, fixed in 10% formalin. Then the diagonal section of the liver, the transverse section of the kidneys and heart and the horizontal section of the spleen and the posterior section of the brain were obtained and processed (Leica TP1020, Japan) as follows: (1) 10% neutral buffered formalin for 1 h, twice; (2) 70% alcohol for 1.5 h; (3) 80% alcohol for 1.5 h; (4) 90% alcohol for 1.5 h; (5) absolute alcohol for 1.5 h, twice; (6) xylene for 1.5 h, twice; (7) in molten wax at 65°C for 2.5 h two changes. The processed tissues were embedded in paraffin and sectioned at 4 microns thickness, placed on frosted glass slides and dried on a 70°C hot plate for 30 minutes.
# (§5) The tissues were stained using the hematoxylin and eosin (H&E) stains. The sections were dewaxed in two changes of xylene (3 min each), hydrated in two changes of 100% ethanol, followed by 90% ethanol and 70% ethanol, for 3 min each, rinsed with water (3 min) and stained. The stained tissues were dehydrated with 70% ethanol followed by 90% ethanol, placed in two changes of 100% ethanol for 3 minutes each and cleaned with two changes of xylene (3 min each).
# (§6) Histopathology changes were observed and grouped based on two main criteria: vascular changes including vessel congestion, extravasation of red blood cells and hematoma formation; and necrotic changes including necrosis, fibrosis, nuclear changes, abscesses and cell regeneration. The morphological changes were assessed semi-quantitatively, blind by two independent assessors and graded as follows: No change - 0 (no distinguishable change, 0%); mild change - 1 (initiation of changes, up to 30%); moderate change - 2 (patent changes, 31-60%); severe change - 3 (wide spread changes, 61-100%). Then, using SPSS 16.0, the Mann-Whitney test was used for pair-wise comparison between the sunitinib alone group and the combination group at each dose. The differences were considered significance if p < 0.05.
# brain tissue = experiment: Histopathology assessment of brain (H&E, semi-quantitative grading); assay type: in vivo; details: mice; for Brain histopathological changes: 4 h
# Description: as §1
# Processing of tissue samples for histology assessment followed established procedures. In brief, the tissue samples were rinsed with 0.9% saline solution, fixed in 10% formalin. […]
# (§7) Histopathology changes were observed and grouped based on two main criteria: vascular changes including vessel congestion, extravasation of red blood cells and hematoma formation; and necrotic changes including necrosis, fibrosis, nuclear changes, abscesses and cell regeneration. The morphological changes were assessed semi-quantitatively, blind by two independent assessors and graded as follows: No change - 0 (no distinguishable change, 0%); mild change - 1 (initiation of changes, up to 30%); moderate change - 2 (patent changes, 31-60%); severe change - 3 (wide spread changes, 61-100%). […]
# liver tissue = experiment: Histopathology assessment of liver (H&E, semi-quantitative grading); assay type: in vivo; details: mice
# Description: as §1, §4
# (§8) The tissues were stained using the hematoxylin and eosin (H&E) stains. The sections were dewaxed in two changes of xylene (3 min each), hydrated in two changes of 100% ethanol, followed by 90% ethanol and 70% ethanol, for 3 min each, rinsed with water (3 min) and stained. […]
# as §7
# P450 = system: P450; parameters: method as in PMID 20020268; details: cited from earlier work
# Male ICR mice [2] = experiment: Serum ALT and AST (liver function biomarkers); assay type: in vivo; details: for ALT serum concentration / AST serum concentration: mean ± SE
# Description: as §1, §2, §3
# spleen = experiment: Histopathology assessment of spleen (H&E, semi-quantitative grading); assay type: in vivo; details: mice; for Spleen inflammatory changes: at any dose; for Spleen vascular changes: study doses of each treatment group
# Description: as §1, §4, §8, §7
# kidney tissue = experiment: Histopathology assessment of kidney (H&E, semi-quantitative grading); assay type: in vivo; details: mice
# Description: as §1, §4, §5, §6
# [3] = parameters: method as in earlier work; details: monkeys; up; cited from earlier work
# [4] = parameters: method as in PMID 16520665; details: mice; cited from earlier work
# [5] = humans; cited from earlier work
# mouse plasma proteins = system: mouse plasma proteins; parameters: method as in PMID 19169880; details: fraction unbound independent of concentration; cited from earlier work
# plasma proteins = details: humans; cited from earlier work
# [6] = parameters: method as in PMID 19169880; details: mice, cited from earlier work
# [7] = paracetamol 500 mg/kg IP alone, n = 6
# [8] = paracetamol 500 mg/kg IP alone, n = 6, listed as paracetamol
# [9] = sunitinib 25 mg/kg PO alone, 4 h post dose
# [10] = sunitinib 50 mg/kg PO alone, 4 h post dose
# [11] = sunitinib 80 mg/kg PO alone, 4 h post dose
# [12] = sunitinib 100 mg/kg PO alone, 4 h post dose
# [13] = sunitinib 140 mg/kg PO alone, 4 h post dose
# [14] = sunitinib alone 25-140 mg/kg PO, 4 h post dose
# [15] = increasing doses of sunitinib alone (25-140 mg/kg PO), 4 h
# [16] = sunitinib 25 mg/kg PO alone, 4 h post dose, n = 6
# [17] = sunitinib 50 mg/kg PO alone, 4 h post dose, n = 6
# [18] = sunitinib 80 mg/kg PO alone, 4 h post dose, n = 6
# [19] = sunitinib 100 mg/kg PO alone, 4 h post dose, n = 6
# [20] = sunitinib 140 mg/kg PO alone, 4 h post dose, n = 6
smiles,measurement,setting,value
"CC(=O)Nc1ccc(O)cc1 [PCM, paracetamol]",Increase of creatinine serum concentration vs baseline control,Male ICR mice [1]; paracetamol 500 mg/kg IP alone,21%
same,BUN serum concentration,Male ICR mice [1]; paracetamol 500 mg/kg IP alone,33.81 ± 5.68 mg/dL
same,Creatinine serum concentration,Male ICR mice [1]; paracetamol 500 mg/kg IP alone,0.644 ± 0.110 mg/dL
same,Heart inflammatory changes (grade),heart tissue; paracetamol 500 mg/kg IP alone,"mild (mild change - 1 (initiation of changes, up to 30%))"
same,Heart vascular congestion (grade),heart tissue; paracetamol 500 mg/kg IP alone,"mild (mild change - 1 (initiation of changes, up to 30%))"
same,Brain vascular or inflammatory changes,brain tissue; paracetamol 500 mg/kg IP alone,no vascular or inflammatory changes
same,Hepatic inflammatory changes (grade),liver tissue; paracetamol 500 mg/kg IP alone,"moderate (moderate change - 2 (patent changes, 31-60%))"
same,Hepatic vascular changes (grade),liver tissue; paracetamol 500 mg/kg IP alone,"mild (mild change - 1 (initiation of changes, up to 30%))"
same,Amount undergoing P450 mediated oxidation to NAPQI,P450,~ 5%
same,Mean serum AST relative to vehicle control group,Male ICR mice [2]; paracetamol 500 mg/kg IP alone,2 fold
same,ALT serum concentration,Male ICR mice [2]; [7],249.6 ± 222.7 U/L
same,AST serum concentration,Male ICR mice [2]; [7],377.1 ± 173.6 U/L
same,ALT serum concentration,Male ICR mice [2]; [8],249.60 ± 222.72 U/L
same,AST serum concentration,Male ICR mice [2]; [8],377.09 ± 173.55 U/L
same,Spleen inflammatory changes,spleen,no inflammatory changes
same,Spleen vascular changes,spleen,did not reveal any vascular changes
same,Renal inflammatory changes (grade),kidney tissue; paracetamol 500 mg/kg IP alone,"mild (mild change - 1 (initiation of changes, up to 30%))"
same,Renal vascular changes (grade),kidney tissue; paracetamol 500 mg/kg IP alone,"mild (mild change - 1 (initiation of changes, up to 30%))"
CCNCCNC(=O)c1c(C)[nH]c(/C=C2\C(=O)Nc3ccc(F)cc32)c1C [SU12662],"Brain penetration, percent of plasma concentrations",[3],30%-40
same,"Brain penetration, times the plasma concentration",[4],4-7 times
same,Half-life,[5],80 to 110 h
same,Bound to mouse plasma proteins,mouse plasma proteins,95%
same,Bound to plasma proteins,plasma proteins,90%
CCN(CC)CCNC(=O)c1c(C)[nH]c(/C=C2\C(=O)Nc3ccc(F)cc32)c1C [Sunitinib],BUN serum concentration,Male ICR mice [1]; [9],20.08 ± 2.54 mg/dL
same,Creatinine serum concentration,Male ICR mice [1]; [9],0.535 ± 0.033 mg/dL
same,BUN serum concentration,Male ICR mice [1]; [10],17.5 ± 1.25 mg/dL
same,Creatinine serum concentration,Male ICR mice [1]; [10],0.594 ± 0.082 mg/dL
same,BUN serum concentration,Male ICR mice [1]; [11],19.71 ± 0.58 mg/dL
same,Creatinine serum concentration,Male ICR mice [1]; [11],0.528 ± 0.064 mg/dL
same,BUN serum concentration,Male ICR mice [1]; [12],17.62 ± 0.94 mg/dL
same,Creatinine serum concentration,Male ICR mice [1]; [12],0.533 ± 0.060 mg/dL
same,BUN serum concentration,Male ICR mice [1]; [13],26.68 ± 6.05 mg/dL
same,Creatinine serum concentration,Male ICR mice [1]; [13],0.559 ± 0.051 mg/dL
same,"BUN concentrations, range of group means",Male ICR mice [1]; [14],17.50 to 26.68 mg/dL
same,"Creatinine serum concentration, range of group means",Male ICR mice [1]; [14],0.528 to 0.594 mg/dL
same,Cardiotoxicity (damage grade),"heart tissue; 25 - 80 mg/kg doses of sunitinib, reduction in relation to the paracetamol group",no damage to moderate damage
same,Heart inflammatory changes,"heart tissue; sunitinib alone PO, 4 h",no inflammatory changes
same,Heart vascular congestion (grade),"heart tissue; sunitinib alone PO, 4 h","mild (mild change - 1 (initiation of changes, up to 30%))"
same,Brain histopathological changes,brain tissue; sunitinib alone PO at high doses,toxicity decreased
same,Brain histopathological changes,brain tissue; sunitinib alone PO at low doses (p < 0.05 at 25 and 80 mg/kg),Some congestion of vessels at the 'cortical junction' as well as evidence of liquefactive necrosis
same,"Brain penetration, percent of plasma concentrations",[3],30%-40
same,"Brain penetration, times the plasma concentration",[4],4-7 times
same,Dose eliminated in the faeces,[5],61%
same,Half-life,[5],40 to 60 h
same,Recovered unchanged in urine,[5],around 16%
same,Time after dosing at which maximum plasma concentration is reached,[5],6 to 12 h
same,Hepatic inflammatory changes (grade),liver tissue; [15],"mild (mild change - 1 (initiation of changes, up to 30%))"
same,Hepatic vascular changes (grade),liver tissue; [15],"mild (mild change - 1 (initiation of changes, up to 30%))"
same,ALT serum concentration,Male ICR mice [2]; [16],61.40 ± 26.57 U/L
same,AST serum concentration,Male ICR mice [2]; [16],204.6 ± 50.3 U/L
same,ALT serum concentration,Male ICR mice [2]; [17],36.75 ± 12.15 U/L
same,AST serum concentration,Male ICR mice [2]; [17],204.4 ± 49.4 U/L
same,ALT serum concentration,Male ICR mice [2]; [18],75.02 ± 20.37 U/L
same,AST serum concentration,Male ICR mice [2]; [18],290.3 ± 77.7 U/L
same,ALT serum concentration,Male ICR mice [2]; [19],47.61 ± 24.50 U/L
same,AST serum concentration,Male ICR mice [2]; [19],243.0 ± 66.4 U/L
same,ALT serum concentration,Male ICR mice [2]; [20],50.89 ± 18.90 U/L
same,AST serum concentration,Male ICR mice [2]; [20],239.5 ± 65.9 U/L
same,"ALT serum concentration, range of group means",Male ICR mice [2]; [14],36.75-75.02 U/L
same,"AST serum concentration, range of group means",Male ICR mice [2]; [14],204.4-290.3 U/L and 204.64 - 290.28 U/L
same,Spleen inflammatory changes,spleen,no inflammatory changes
same,Spleen vascular changes,spleen,did not reveal any vascular changes
same,Bound to mouse plasma proteins,mouse plasma proteins,91%
same,Bound to albumin,plasma proteins,95%
same,Elimination half-life,[6]; after oral administration,1.5 to 7.6 h
same,Time within which maximum concentration is achieved,[6],0.5 to 6 h
same,Renal inflammatory changes,"kidney tissue; sunitinib alone 140 mg/kg PO, 4 h",some tubular necrosis
same,Renal vascular changes (grade),"kidney tissue; sunitinib alone 25-140 mg/kg PO, 4 h","mild (mild change - 1 (initiation of changes, up to 30%))"
same,Renal inflammatory changes,"kidney tissue; sunitinib alone PO, doses below 140 mg/kg, 4 h",no signs of inflammatory changes
